{"source": "patent EP3539969A1", "about": "“NOVEL PHOTO-INITIATORS AND THEIR APPLICATION” (ETH Zurich, priority 2018, dated 2019)", "key": {"[1]": {"details": "for ε405: λ = 405 nm", "protocol": "To compare photobleaching, 0.25 mM solutions of ^PhBAPO-ONBu4 and ^MesBAPO-ONBu4 were prepared in THF. UV-Vis spectra were recorded in 2 mm quartz cuvettes prior and after 15 min of irradiation with 265 nm (Lumos 43 LED reactor, Atlas Photonics). Spectra have been smoothed (adjacent averaging, points of window: 5)."}, "[2]": {"details": "for irradiation time to complete photolysis: 405 nm LED, 80 mM in CD3CN, diphenyl disulfide (3 eq.)", "excerpt": "The photolysis has been followed by ^31P NMR. […] The results are further illustrated by Fig. 2"}, "[3]": {"details": "25°C", "protocol": "To determine the solubility, small samples of the respective substance were exactly weighed to Eppendorf tubes. Upon shanking at an Eppendorf thermomixer (25 C @ 1400 rpm), water is added until the whole samples was homogenously dissolved."}, "[4]": {"details": "for integral rel. to TPP / integral rel. to t = 0: protected from light", "protocol": "To determine the stability of ^PhBAPO-ONBu4 against hydrolysis, 10 mg were dissolved in 0.6 mL of D2O in a NMR tube protected from light. […] Table 1: Integrals of 31P NMR signals of PhBAPO-ONBu4 relative to TPP as external standard for integration over time."}}, "note": "Where a name gives a salt, the structure may show the parent alone. Read-outs that look alike come from different tables or passages of the source.", "data": [{"compound": "Cc1cc(C)c(C(=O)P(=O)(O)C(=O)c2c(C)cc(C)cc2C)c(C)c1", "note": "[^MesBAPO-ONBu4, bis(mesitoyl)phosphinic acid tetrabutylammonium salt, reference compound]", "values": [{"measurement": "λmax (longest wave absorption)", "setting": "[1]; THF", "result": 373, "unit": "nm"}, {"measurement": "ε", "setting": "[1]; λ = 244 nm", "result": "5935±72", "unit": "Lmol^-1cm^-1"}, {"measurement": "ε", "setting": "[1]; λ = 265 nm (LED wavelength)", "result": "3368±88", "unit": "Lmol^-1cm^-1"}, {"measurement": "ε", "setting": "[1]; λ = 359 nm", "result": "211±3", "unit": "Lmol^-1cm^-1"}, {"measurement": "ε", "setting": "[1]; λ = 365 nm (LED wavelength)", "result": "216±4", "unit": "Lmol^-1cm^-1"}, {"measurement": "ε405", "setting": "[1]", "result": 64, "unit": "Lmol^-1cm^-1"}, {"measurement": "irradiation time to complete photolysis", "setting": "[2]", "result": "over 12 min"}, {"measurement": "solubility in water", "setting": "[3]", "result": 3.5, "unit": "mg/mL"}]}, {"compound": "O=C(c1ccccc1)P(=O)(O)C(=O)c1ccccc1", "note": "[^PhBAPO-ONBu4, bis(benzoyl)phosphinic acid tetrabutylammonium salt]", "values": [{"measurement": "photobleaching", "setting": "[1]; 0.25 mM in THF, 15 min irradiation with 265 nm", "result": "only colourless photoproducts are formed"}, {"measurement": "red shift of λmax compared to ^MesBAPO-ONBu4", "setting": "[1]; THF", "result": "about 20 nm"}, {"measurement": "λmax (longest wave absorption)", "setting": "[1]; THF", "result": 394, "unit": "nm"}, {"measurement": "ε", "setting": "[1]; λ = 235 nm", "result": "16957±1372", "unit": "Lmol^-1cm^-1"}, {"measurement": "ε", "setting": "[1]; λ = 265 nm (LED wavelength)", "result": "3424±88", "unit": "Lmol^-1cm^-1"}, {"measurement": "ε", "setting": "[1]; λ = 365 nm (LED wavelength)", "result": "106±2", "unit": "Lmol^-1cm^-1"}, {"measurement": "ε", "setting": "[1]; λ = 394 nm", "result": "171±4", "unit": "Lmol^-1cm^-1"}, {"measurement": "ε405", "setting": "[1]", "result": 154, "unit": "Lmol^-1cm^-1"}, {"measurement": "half-life", "setting": "[4]", "result": 51.4, "unit": "days"}, {"measurement": "half time", "setting": "[4]; hydrolysis in D2O", "result": 51, "unit": "days"}, {"measurement": "t1 (exponential fitting of the decay, y = e^-x/t1)", "setting": "[4]; hydrolysis in D2O, over 84 days", "result": "74.2 ± 1.8", "unit": "days"}, {"measurement": "integral rel. to TPP", "setting": "[4]; t = 0 d, 10 mg in 0.6 mL D2O", "result": 4.24}, {"measurement": "integral rel. to t = 0", "setting": "[4]; t = 0 d, D2O", "result": 1}, {"measurement": "integral rel. to TPP", "setting": "[4]; t = 4 d, D2O", "result": 4.02}, {"measurement": "integral rel. to t = 0", "setting": "[4]; t = 4 d, D2O", "result": 0.9481}, {"measurement": "integral rel. to TPP", "setting": "[4]; t = 5 d, D2O", "result": 4.02}, {"measurement": "integral rel. to t = 0", "setting": "[4]; t = 5 d, D2O", "result": 0.9481}, {"measurement": "integral rel. to TPP", "setting": "[4]; t = 14 d, D2O", "result": 3.46}, {"measurement": "integral rel. to t = 0", "setting": "[4]; t = 14 d, D2O", "result": 0.816}, {"measurement": "integral rel. to TPP", "setting": "[4]; t = 29 d, D2O", "result": 2.98}, {"measurement": "integral rel. to t = 0", "setting": "[4]; t = 29 d, D2O", "result": 0.7028}, {"measurement": "integral rel. to TPP", "setting": "[4]; t = 56 d, D2O", "result": 1.98}, {"measurement": "integral rel. to t = 0", "setting": "[4]; t = 56 d, D2O", "result": 0.467}, {"measurement": "integral rel. to TPP", "setting": "[4]; t = 84 d, D2O", "result": 1.31}, {"measurement": "integral rel. to t = 0", "setting": "[4]; t = 84 d, D2O", "result": 0.309}, {"measurement": "irradiation time to complete photolysis", "setting": "[2]", "result": "≤ 6", "unit": "min"}, {"measurement": "photoactivity relative to ^MesBAPO-ONBu4", "setting": "[2]; 405 nm irradiation", "result": "at least twice as photoactive as ^MesBAPO-ONBu4"}, {"measurement": "solubility in water", "setting": "[3]", "result": 17.2, "unit": "mg/mL"}]}]}
